Assay results published in patent US9387238B2, “CDCA1 epitope peptides and vaccines containing the same” (OncoTherapy Science, Inc., priority 2008, dated 2016).

Tests used:
[1] = test system: peptide-pulsed A24LCL cells; test: IFN-gamma ELISA assay on CTL lines established with CDCA1 peptides; format: cell-based, human; conditions: CTL line vs peptide-pulsed target cells, compared with target cells not pulsed
Method: CTLs were expanded in culture using the method similar to the one described by Riddell et al. (Walter E A et al., N Engl J Med 1995 Oct. 19, 333(16): 1038-44; Riddell S R et al., Nat Med 1996 February, 2(2): 216-23). A total of 5×10^4 CTLs were suspended in 25 ml of AIM-V/5% AS medium with 2 kinds of human B-lymphoblastoid cell lines, inactivated by MMC, in the presence of 40 ng/ml of anti-CD3 monoclonal antibody (Pharmingen). One day after initiating the cultures, 120 IU/ml of IL-2 were added to the cultures. The cultures were fed with fresh AIM-V/5% AS medium containing 30 IU/ml of IL-2 on days 5, 8 and 11 (Tanaka H et al., Br J Cancer 2001 Jan. 5, 84(1): 94-9; Umano Y et al., Br J Cancer 2001 Apr. 20, 84(8): 1052-7; Uchida N et al., Clin Cancer Res 2004 Dec. 15, 10(24): 8577-86; Suda T et al., Cancer Sci 2006 May, 97(5): 411-9; Watanabe T et al., Cancer Sci 2005 August, 96(8): 498-506).
(§1) To examine specific CTL activity, interferon (IFN)-gamma enzyme-linked immunospot (ELISPOT) assay and IFN-gamma enzyme-linked immunosorbent assay (ELISA) were performed. Specifically, peptide-pulsed A24LCL (1×10^4/well) was prepared as stimulator cells. Cultured cells in 48 wells were used as responder cells. IFN-gamma ELISPOT assay and IFN-gamma ELISA assay were performed under manufacture procedure.

[2] = test system: peptide-pulsed A24LCL cells; test: IFN-gamma ELISPOT assay on CTLs induced with CDCA1 peptides; format: cell-based, human; conditions: CTLs from HLA-A*2402 positive donor vs peptide-pulsed target cells, compared with the control
Excerpt: Monocyte-derived dendritic cells (DCs) were used as antigen-presenting cells (APCs) to induce cytotoxic T lymphocyte (CTL) responses against peptides presented on human leukocyte antigen (HLA). DCs were generated in vitro as described elsewhere (Nakahara S et al., Cancer Res 2003 Jul. 15, 63(14): 4112-8). Specifically, peripheral blood mononuclear cells (PBMCs) isolated from a normal volunteer (HLA-A*2402 positive) by Ficoll-Plaque (Pharmacia) solution were separated by adherence to a plastic tissue culture dish (Becton Dickinson) so as to enrich them as the monocyte fraction. The monocyte-enriched population was cultured in the presence of 1000 U/ml of granulocyte-macrophage colony-stimulating factor (GM-CSF) (R&D System) and 1000 U/ml of interleukin (IL)-4 (R&D System) in AIM-V Medium (Invitrogen) containing 2% heat-inactivated autologous serum (AS). After 7 days of culture, the cytokine-induced DCs were pulsed with 20 micro g/ml of each of the synthesized peptides in the presence of 3 micro g/ml of beta 2-microglobulin for 3 hr at 37 degrees C. in AIM-V Medium. The generated cells appeared to express DC-associated molecules, such as CD80, CD83, CD86 and HLA class II, on their cell surfaces (data not shown). These peptide-pulsed DCs were then inactivated by Mitomycin C (MMC) (30 micro g/ml for 30 min) and mixed at a 1:20 ratio with autologous CD8+ T cells, obtained by positive selection with CD8 Positive Isolation Kit (Dynal). These cultures were set up in 48-well plates (Corning); each well contained 1.5×10^4 peptide-pulsed DCs, 3×10^5 CD8+ T cells and 10 ng/ml of IL-7 (R&D System) in 0.5 ml of AIM-V/2% AS medium. Three days later, these cultures were supplemented with IL-2 (CHIRON) to a final concentration of 20 IU/ml. On day 7 and 14, the T cells were further stimulated with the autologous peptide-pulsed DCs. The DCs were prepared each time by the same way described above. CTL was tested against peptide-pulsed A24LCL cells after the 3rd round of peptide stimulation on day 21 (Tanaka H et al., Br J Cancer 2001 Jan. 5, 84(1): 94-9; Umano Y et al., Br J Cancer 2001 Apr. 20, 84(8): 1052-7; Uchida N et al., Clin Cancer Res 2004 Dec. 15, 10(24): 8577-86; Suda T et al., Cancer Sci 2006 May, 97(5): 411-9; Watanabe T et al., Cancer Sci 2005 August, 96(8): 498-506).
as §1

[3] = test system: target cells pulsed with peptide; test: IFN-gamma ELISA assay on CTL clone established by limiting dilution; format: cell-based, human; conditions: CTL clone by limiting dilution vs peptide-pulsed target cells, compared with the control
Method: The dilutions were made to have 0.3, 1, and 3 CTLs/well in 96 round-bottomed micro titer plate (Nalge Nunc International). CTLs were cultured with 1×10^4 cells/well of 2 kinds of human B-lymphoblastoid cell lines, 30 ng/ml of anti-CD3 antibody, and 125 U/ml of IL-2 in a total of 150 micro 1/well of AIM-V Medium containing 5% AS. 50 micro 1/well of IL-2 were added to the medium 10 days later so to reach a final concentration of 125 U/ml IL-2. CTL activity was tested on the 14th day, and CTL clones were expanded using the same method as described above (Uchida N et al., Clin Cancer Res 2004 Dec. 15, 10(24): 8577-86; Suda T et al., Cancer Sci 2006 May, 97(5): 411-9; Watanabe T et al., Cancer Sci 2005 August, 96(8): 498-506).
as §1

[4] = test system: COS7 cells transfected with CDCA1 and HLA-A*2402; test: Specific CTL activity against target cells exogenously expressing CDCA1 and HLA-A*2402; format: cell-based
Excerpt: The cDNA encoding an open reading frame of target genes or HLA-A24 was amplified by PCR. The PCR-amplified product was cloned into pCAGGS vector. The plasmids were transfected into COS7, which is the target genes and HLA-A24-null cell line, using lipofectamine 2000 (Invitrogen) according to the manufacturer's recommended procedures. After 2 days from transfection, the transfected cells were harvested with versene (Invitrogen) and used as the target cells (5×10^4 cells/well) for CTL activity assay.
The established CTL lines raised against these peptides were examined for their ability to recognize target cells that exogenously express CDCA1 and HLA-A*2402 molecule. Specific CTL activity against COS7 cells which transfected with both the full length of CDCA1 and HLA-A*2402 molecule gene (a specific model for the target cells that exogenously express CDCA1 and HLA-A*2402 gene) was tested using the CTL lines raised by corresponding peptide as the effecter cells. COS7 cells transfected with either full length of CDCA1 genes or HLA-A*2402 were prepared as control.

Sequence	IFN-gamma production of CTL line (ELISA) [1]	IFN-gamma production of induced CTLs (ELISPOT) [2]	IFN-gamma production of CTL clone (ELISA) [3]	specific CTL activity ([4]; CTL clone vs COS7 cells transfected with both CDCA1 and HLA-A*2402)	specific CTL activity ([4]; CTL clone vs target cells expressing either HLA-A*2402 or CDCA1 (controls))
IYMRALQIVY [SEQ ID NO: 11, 10-mer peptide derived from CDCA1, start position 48]	potent IFN-gamma production	potent IFN-gamma production	–	–	–
MYPHLMEGFL [SEQ ID NO: 2, 10-mer peptide derived from CDCA1, start position 74]	no specific IFN-gamma production	no specific IFN-gamma production	–	–	–
RYNVAEIVI [SEQ ID NO: 22, 9-mer peptide derived from CDCA1, start position 8]	potent IFN-gamma production	potent IFN-gamma production	–	–	–
RFLSGIINFI [SEQ ID NO: 3, 10-mer peptide derived from CDCA1, start position 119]	potent IFN-gamma production	potent IFN-gamma production	–	–	–
SFPRYNVAEI [SEQ ID NO: 14, 10-mer peptide derived from CDCA1, start position 5]	potent IFN-gamma production	potent IFN-gamma production	–	–	–
VYGIRLEHF [SEQ ID NO: 23, 9-mer peptide derived from CDCA1, start position 56]	potent IFN-gamma production	potent IFN-gamma production	potent IFN-gamma production	high specific CTL activity	no significant specific CTL activity
KTEENSFKRL [SEQ ID NO: 4, 10-mer peptide derived from CDCA1, start position 335]	potent IFN-gamma production	potent IFN-gamma production	–	–	–
